From ChEMBL document CHEMBL1201862, “PubChem BioAssay data set” (2004)
Counter-ions that a name gives are not always drawn. Values belong to the compound of their own block, whether it stands above or below them. Calls of active or inactive are those of the source.

How the values were obtained:
[1] = system: Candida albicans; assay: growth inhibition of azole-resistant C. albicans, dose response, CaCi-8 strain, Alamar Blue, dry powder, set 3 (AID 488905); type: functional, organism-based
[2] = system: Candida albicans; assay: reversal of fluconazole resistance in C. albicans, dose response, CaCi-2 strain, Alamar Blue, dry powder, set 3 (AID 488907); type: functional, organism-based
[3] = target: T1, Sentrin-specific protease 6 (Homo sapiens, UniProt Q9GZR1); type: functional
T1 sequence (Q9GZR1 whole entry): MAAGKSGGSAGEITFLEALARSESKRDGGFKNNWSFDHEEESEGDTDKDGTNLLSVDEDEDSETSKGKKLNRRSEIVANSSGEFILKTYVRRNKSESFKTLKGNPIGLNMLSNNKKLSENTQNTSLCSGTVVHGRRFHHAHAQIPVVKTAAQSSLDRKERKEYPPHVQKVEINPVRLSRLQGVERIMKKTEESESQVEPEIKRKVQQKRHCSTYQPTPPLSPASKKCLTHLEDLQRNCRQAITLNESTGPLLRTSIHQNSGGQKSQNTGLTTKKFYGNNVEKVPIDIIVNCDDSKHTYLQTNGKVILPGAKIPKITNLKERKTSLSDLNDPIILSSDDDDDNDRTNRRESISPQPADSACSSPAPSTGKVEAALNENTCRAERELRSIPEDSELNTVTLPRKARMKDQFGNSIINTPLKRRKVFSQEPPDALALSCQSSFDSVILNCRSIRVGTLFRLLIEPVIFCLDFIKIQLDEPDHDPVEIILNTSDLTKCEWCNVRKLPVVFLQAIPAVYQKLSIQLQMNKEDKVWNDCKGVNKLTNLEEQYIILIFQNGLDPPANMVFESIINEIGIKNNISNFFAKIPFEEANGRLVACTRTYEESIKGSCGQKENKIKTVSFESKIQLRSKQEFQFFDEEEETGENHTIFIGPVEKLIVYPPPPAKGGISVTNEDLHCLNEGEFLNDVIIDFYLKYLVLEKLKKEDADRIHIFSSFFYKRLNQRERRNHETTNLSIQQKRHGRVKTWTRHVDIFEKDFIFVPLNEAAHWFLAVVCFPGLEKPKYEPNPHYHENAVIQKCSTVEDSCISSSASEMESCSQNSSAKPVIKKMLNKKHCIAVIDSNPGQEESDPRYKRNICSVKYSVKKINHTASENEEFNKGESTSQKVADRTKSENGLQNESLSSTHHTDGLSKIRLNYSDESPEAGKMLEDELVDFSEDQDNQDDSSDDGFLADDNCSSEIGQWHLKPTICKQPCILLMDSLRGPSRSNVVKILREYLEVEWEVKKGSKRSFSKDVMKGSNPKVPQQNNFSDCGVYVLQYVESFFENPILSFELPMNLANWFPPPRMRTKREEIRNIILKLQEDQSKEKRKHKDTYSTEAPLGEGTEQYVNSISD

[4] = target: T2, Caspase-3 (Homo sapiens, UniProt P42574); type: functional
T2 sequence (P42574 whole entry): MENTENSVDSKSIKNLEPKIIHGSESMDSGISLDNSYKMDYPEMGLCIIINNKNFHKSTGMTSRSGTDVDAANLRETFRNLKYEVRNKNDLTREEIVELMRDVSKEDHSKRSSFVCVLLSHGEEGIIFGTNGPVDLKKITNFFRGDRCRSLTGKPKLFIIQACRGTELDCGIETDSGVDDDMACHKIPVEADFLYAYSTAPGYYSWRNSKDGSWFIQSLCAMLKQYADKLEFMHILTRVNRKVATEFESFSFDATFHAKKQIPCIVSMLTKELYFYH

[5] = target: T3, Sentrin-specific protease 7 (Homo sapiens, UniProt Q9BQF6); type: functional;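 further: Luminescence-based dose-response confirmation of ultra-high-throughput screening hits, measuring inhibition of SENP7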
T3 sequence (Q9BQF6 whole entry): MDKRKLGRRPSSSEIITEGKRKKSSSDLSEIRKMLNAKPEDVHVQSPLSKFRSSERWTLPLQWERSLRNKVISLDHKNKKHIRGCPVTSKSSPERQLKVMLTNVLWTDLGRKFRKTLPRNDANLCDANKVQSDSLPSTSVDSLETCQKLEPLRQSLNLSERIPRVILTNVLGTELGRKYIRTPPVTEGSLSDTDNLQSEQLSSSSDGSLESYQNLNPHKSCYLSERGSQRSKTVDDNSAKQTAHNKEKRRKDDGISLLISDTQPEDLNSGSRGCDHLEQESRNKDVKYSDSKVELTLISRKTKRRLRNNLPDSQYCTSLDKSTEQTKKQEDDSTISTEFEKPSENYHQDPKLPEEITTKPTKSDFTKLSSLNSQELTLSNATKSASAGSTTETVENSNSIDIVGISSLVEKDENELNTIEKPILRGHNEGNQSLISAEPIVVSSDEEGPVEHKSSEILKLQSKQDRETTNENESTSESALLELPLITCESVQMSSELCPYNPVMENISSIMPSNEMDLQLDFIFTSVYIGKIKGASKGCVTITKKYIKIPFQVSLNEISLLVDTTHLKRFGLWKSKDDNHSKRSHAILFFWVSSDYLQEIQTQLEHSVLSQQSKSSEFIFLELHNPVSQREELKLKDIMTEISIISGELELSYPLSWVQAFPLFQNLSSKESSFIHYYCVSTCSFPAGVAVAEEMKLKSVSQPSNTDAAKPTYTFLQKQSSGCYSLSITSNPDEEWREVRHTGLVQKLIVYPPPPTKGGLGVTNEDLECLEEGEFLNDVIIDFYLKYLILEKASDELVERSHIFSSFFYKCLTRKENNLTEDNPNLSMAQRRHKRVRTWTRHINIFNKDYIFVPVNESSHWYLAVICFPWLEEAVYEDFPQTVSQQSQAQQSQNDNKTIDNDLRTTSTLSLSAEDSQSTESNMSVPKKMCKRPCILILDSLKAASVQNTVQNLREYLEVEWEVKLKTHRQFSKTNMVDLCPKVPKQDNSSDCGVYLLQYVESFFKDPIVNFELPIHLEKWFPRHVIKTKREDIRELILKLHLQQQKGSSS

[6] = target: T4, Sentrin-specific protease 8 (Homo sapiens, UniProt Q96LD8); type: functional;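 further: luminescence read-out of SENP8 inhibition, dose-response confirmation following an ultra-high-throughput screen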
T4 sequence (Q96LD8 whole entry): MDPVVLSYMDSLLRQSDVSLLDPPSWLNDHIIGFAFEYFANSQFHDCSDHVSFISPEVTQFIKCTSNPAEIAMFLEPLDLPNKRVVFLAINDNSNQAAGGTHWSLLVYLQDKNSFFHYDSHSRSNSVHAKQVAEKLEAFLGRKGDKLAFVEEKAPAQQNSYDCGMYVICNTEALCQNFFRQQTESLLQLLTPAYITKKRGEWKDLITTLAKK

[7] = system: HeLa; assay: HeLa cell cytotoxicity, dose response, cytotoxicity control for MITF activator project, CellTiter-Glo luminescence, cherry-pick samples (AID 540259); type: functional, cell-based; settings: Homo sapiens
[8] = target: Dual specificity tyrosine-phosphorylation-regulated kinase 1A (Rattus norvegicus, UniProt Q63470); type: biochemical, Homo sapiens
[9] = target: Dual specificity protein kinase CLK1 (Homo sapiens, UniProt P49759); assay: CLK1 kinase inhibitors, off-target check, dose response, selectivity assay for Dyrk1A inhibitor project, biochemical, cherry-picked samples (AID 588811)
[10] = CEM21 lymphoblast cell cytotoxicity, dose response, cytotoxicity control for viral fusion inhibitor project, CellTiter-Glo luminescence, cherry-picked (AID 652042); type: functional, cell-based;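 further: potency for signal decrease meaning cytotoxicity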
[11] = ZM109 Env clade C HIV-1 fusion inhibitors, dose response, HeLa effector, CEM target cells, luciferase, cherry-pick (AID 652058); type: functional, cell-based
[12] = target: Mu-type opioid receptor (Homo sapiens, UniProt P35372); assay: (§1) Counterscreen for agonists of heterodimerization of the mu 1 (OPRM1) and delta 1 (OPRD1) opioid receptors: Luminescence-based cell-based high throughput dose response assay to identify agonists of OPRM1 homodimerization.; type: functional
[13] = inhibitors of HIV Env-driven cell fusion, dose response, cherry-pick (AID 652057); type: functional, cell-based
[14] = target: T5, Endoribonuclease toxin MazF (Escherichia coli K-12, UniProt P0AE70); assay: fluorescent RNA oligo signal without MazF, dose response, counter-screen for MazEF activator project, biochemical, fluorescence, single-stranded RNase substrate (AID 588502); type: functional
[15] = target: Delta-type opioid receptor (Homo sapiens, UniProt P41143); assay: as §1, with “of OPRD1” for “of OPRM1”, “homodimerization. [Related pubchem assays (depositor defined):AID504326, AID504355, AID504692, AID504904, AID504905]” for “homodimerization.”; type: functional
[16] = target: T5, Endoribonuclease toxin MazF; assay: MazF toxin RNase activators, dose response, biochemical, fluorescence, single-stranded RNA substrate, uHTS hits (AID 588481); type: functional
[17] = target: 5-hydroxytryptamine receptor 5A (Homo sapiens, UniProt P47898); assay: Counterscreen for agonists of OPRM1-OPRD1 heterodimerization: luminescence-based cell-based high throughput dose response assay to identify agonists of 5-hydroxytryptamine (serotonin) 5A receptor (HTR5A). [Related pubchem assays (depositor defined):AID504326, AID504355, AID504692, AID504904, AID504905]; type: functional
[18] = system: HEK293; assay: optical interference in Abeta FP readout, dose response, artefact control for IDE activator project, biochemical, fluorescence polarization (AID 588442); type: functional, cell-based; settings: Homo sapiens
[19] = target: Cytochrome P450 2C19 (Homo sapiens, UniProt P33261); assay: Cytochrome panel assay with activity outcomes. Panel member name: p450-cyp2c19 Compounds with AC50 equal or less than 10 uM are considered active; type: functional
[20] = target: T6, Insulin-degrading enzyme (Homo sapiens, UniProt P14735); assay: activators of endogenous IDE in HEK cells, dose response, cell-based, fluorescence polarization (AID 588439); type: functional
[21] = target: T6, Insulin-degrading enzyme; assay: activators of recombinant IDE enzyme, dose response, counter-screen for IDE activator project, biochemical, fluorescence polarization (AID 588681)
[22] = system: HEK293; assay: HEK cell cytotoxicity by LDH release, dose response, cytotoxicity control for IDE activator project, fluorescence, HEK cells (AID 588440); type: functional, cell-based; settings: Homo sapiens;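 further: cytotoxicity by LDH release measuring loss of membrane integrity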
[23] = target: Type-1 angiotensin II receptor (Homo sapiens, UniProt P30556); assay: AT1 receptor antagonists, dose response, selectivity assay for APJ receptor antagonist project, cell-based, uHTS hits (AID 463214); type: functional;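 further: antagonist potency against angiotensin II stimulated AT1 response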
[24] = target: Beta-galactosidase (Escherichia coli, UniProt Q8VNN2); assay: PubChem AID 485352; type: functional
[25] = target: Phospholipase D1 (Homo sapiens, UniProt Q13393); assay: PLD1 inhibitor potency in cells, dose response (AID 602151); type: functional;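 further: cellular PLD1 assay in Calu-1 cells stimulated with PMA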
[26] = target: Phospholipase D2 (Homo sapiens, UniProt O14939); assay: PLD2 inhibitor potency in cells, dose response (AID 602147); type: functional;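 further: cellular assay in HEK293 cells overexpressing GFP-tagged PLD2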
[27] = target: T4, Sentrin-specific protease 8; assay: SENP8 protease inhibitors, SAR follow-up, biochemical, luminescence (AID 504501); type: functional
[28] = target: T1, Sentrin-specific protease 6; assay: SAR Analysis of small molecule inhibitors of Sentrin-specific protease 6 (SENP6) using a Luminescent assay. [Related pubchem assays (depositor defined):AID2582, AID2599]; type: functional
[29] = target: T3, Sentrin-specific protease 7; assay: SENP7 protease inhibitors, SAR follow-up, biochemical, luminescence (AID 504497); type: functional
[30] = target: T2, Caspase-3; assay: SAR Analysis of small molecule inhibitors of Sentrin-specific proteases (SENPs) using a Caspase-3 Selectivity assay. [Related pubchem assays (depositor defined):AID2540, AID2599, AID434973, AID489001]; type: functional
[31] = target: Voltage-gated inwardly rectifying potassium channel KCNH2 (Homo sapiens, UniProt Q12809); settings: Potency;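 further: confirmatory quantitative high-throughput screen measuring inhibition of hERG channel activity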
Voltage-gated inwardly rectifying potassium channel KCNH2, sequence (Q12809 whole entry): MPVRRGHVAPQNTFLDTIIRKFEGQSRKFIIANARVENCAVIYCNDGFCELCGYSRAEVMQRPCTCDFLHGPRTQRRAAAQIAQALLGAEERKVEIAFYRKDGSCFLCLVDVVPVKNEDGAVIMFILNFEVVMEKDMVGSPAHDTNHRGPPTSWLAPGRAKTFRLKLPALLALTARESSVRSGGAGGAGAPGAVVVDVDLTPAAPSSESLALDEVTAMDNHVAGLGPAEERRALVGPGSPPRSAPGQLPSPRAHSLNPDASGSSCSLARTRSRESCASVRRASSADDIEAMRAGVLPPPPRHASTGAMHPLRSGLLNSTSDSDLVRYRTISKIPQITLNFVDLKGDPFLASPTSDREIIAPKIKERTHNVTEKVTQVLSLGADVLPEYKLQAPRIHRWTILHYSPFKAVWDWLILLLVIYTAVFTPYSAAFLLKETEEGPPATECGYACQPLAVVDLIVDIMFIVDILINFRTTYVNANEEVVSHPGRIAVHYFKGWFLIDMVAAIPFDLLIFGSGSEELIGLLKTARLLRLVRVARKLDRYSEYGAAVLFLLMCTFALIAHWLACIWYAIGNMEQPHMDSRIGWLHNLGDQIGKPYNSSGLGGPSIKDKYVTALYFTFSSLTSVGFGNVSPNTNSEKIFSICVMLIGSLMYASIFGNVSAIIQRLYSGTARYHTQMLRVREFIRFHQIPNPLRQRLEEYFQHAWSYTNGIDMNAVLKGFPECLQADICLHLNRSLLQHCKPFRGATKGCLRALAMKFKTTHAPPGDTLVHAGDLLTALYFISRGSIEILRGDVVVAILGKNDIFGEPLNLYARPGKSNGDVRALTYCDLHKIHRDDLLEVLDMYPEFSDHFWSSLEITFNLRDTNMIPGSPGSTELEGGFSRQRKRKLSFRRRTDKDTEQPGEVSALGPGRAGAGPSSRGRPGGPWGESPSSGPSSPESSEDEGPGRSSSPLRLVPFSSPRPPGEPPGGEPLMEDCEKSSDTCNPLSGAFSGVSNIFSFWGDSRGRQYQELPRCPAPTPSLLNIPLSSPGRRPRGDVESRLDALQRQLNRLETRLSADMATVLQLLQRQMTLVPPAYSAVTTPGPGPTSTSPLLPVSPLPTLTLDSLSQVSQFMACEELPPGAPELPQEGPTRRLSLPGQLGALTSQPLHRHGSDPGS

T6 sequence (P14735 whole entry): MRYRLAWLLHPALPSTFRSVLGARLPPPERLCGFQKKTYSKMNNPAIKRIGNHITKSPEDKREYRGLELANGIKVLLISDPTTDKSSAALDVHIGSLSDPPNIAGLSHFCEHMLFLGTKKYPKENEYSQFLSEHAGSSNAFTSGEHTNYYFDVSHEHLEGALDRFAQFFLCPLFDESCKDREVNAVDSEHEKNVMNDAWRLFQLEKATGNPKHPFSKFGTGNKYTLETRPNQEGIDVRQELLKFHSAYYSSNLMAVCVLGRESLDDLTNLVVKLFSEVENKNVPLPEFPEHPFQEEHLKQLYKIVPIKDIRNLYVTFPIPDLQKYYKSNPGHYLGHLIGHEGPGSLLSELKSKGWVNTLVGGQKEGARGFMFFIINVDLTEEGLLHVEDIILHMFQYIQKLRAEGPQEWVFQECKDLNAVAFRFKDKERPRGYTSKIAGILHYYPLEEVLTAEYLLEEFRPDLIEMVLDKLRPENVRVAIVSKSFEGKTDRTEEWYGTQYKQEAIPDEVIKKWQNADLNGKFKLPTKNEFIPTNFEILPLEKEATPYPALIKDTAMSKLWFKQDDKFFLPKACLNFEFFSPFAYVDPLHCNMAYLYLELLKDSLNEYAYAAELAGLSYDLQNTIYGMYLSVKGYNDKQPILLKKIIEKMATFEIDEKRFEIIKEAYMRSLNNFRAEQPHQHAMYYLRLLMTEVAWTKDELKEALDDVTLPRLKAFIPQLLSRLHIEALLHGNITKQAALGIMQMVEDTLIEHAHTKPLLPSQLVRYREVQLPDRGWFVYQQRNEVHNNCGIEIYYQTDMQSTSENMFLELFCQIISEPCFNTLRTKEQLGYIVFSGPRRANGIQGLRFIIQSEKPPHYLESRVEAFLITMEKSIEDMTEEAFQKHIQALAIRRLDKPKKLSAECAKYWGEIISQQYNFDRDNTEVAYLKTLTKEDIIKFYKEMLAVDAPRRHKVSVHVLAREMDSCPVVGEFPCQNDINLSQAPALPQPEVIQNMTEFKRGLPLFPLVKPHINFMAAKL
T5 sequence (P0AE70 whole entry): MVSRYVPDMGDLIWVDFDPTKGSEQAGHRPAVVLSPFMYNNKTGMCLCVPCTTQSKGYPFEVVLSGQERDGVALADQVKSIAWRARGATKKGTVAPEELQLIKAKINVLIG
Delta-type opioid receptor, sequence (P41143 whole entry): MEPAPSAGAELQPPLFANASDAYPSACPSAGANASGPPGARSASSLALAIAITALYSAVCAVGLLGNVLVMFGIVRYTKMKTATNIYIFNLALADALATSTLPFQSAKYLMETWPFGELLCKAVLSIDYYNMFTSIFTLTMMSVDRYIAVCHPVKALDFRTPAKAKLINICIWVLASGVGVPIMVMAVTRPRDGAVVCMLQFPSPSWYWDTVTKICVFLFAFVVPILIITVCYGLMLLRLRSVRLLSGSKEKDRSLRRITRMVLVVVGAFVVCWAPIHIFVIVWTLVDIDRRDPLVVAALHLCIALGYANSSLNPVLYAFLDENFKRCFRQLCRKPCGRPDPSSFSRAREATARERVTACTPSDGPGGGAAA
Dual specificity protein kinase CLK1, sequence (P49759 whole entry, the tested form may be a part): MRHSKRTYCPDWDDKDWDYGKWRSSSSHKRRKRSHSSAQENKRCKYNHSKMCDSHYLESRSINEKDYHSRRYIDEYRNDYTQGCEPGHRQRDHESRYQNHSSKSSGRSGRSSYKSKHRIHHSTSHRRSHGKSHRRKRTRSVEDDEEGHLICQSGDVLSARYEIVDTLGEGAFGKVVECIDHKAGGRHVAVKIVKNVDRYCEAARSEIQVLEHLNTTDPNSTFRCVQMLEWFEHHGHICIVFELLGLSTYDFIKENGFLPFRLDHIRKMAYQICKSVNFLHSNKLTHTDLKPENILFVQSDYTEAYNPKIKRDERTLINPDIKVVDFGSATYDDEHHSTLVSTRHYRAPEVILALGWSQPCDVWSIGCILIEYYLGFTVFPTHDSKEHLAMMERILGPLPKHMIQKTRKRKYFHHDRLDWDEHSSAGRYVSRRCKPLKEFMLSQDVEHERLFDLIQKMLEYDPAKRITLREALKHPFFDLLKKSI
Beta-galactosidase, sequence (Q8VNN2 whole entry): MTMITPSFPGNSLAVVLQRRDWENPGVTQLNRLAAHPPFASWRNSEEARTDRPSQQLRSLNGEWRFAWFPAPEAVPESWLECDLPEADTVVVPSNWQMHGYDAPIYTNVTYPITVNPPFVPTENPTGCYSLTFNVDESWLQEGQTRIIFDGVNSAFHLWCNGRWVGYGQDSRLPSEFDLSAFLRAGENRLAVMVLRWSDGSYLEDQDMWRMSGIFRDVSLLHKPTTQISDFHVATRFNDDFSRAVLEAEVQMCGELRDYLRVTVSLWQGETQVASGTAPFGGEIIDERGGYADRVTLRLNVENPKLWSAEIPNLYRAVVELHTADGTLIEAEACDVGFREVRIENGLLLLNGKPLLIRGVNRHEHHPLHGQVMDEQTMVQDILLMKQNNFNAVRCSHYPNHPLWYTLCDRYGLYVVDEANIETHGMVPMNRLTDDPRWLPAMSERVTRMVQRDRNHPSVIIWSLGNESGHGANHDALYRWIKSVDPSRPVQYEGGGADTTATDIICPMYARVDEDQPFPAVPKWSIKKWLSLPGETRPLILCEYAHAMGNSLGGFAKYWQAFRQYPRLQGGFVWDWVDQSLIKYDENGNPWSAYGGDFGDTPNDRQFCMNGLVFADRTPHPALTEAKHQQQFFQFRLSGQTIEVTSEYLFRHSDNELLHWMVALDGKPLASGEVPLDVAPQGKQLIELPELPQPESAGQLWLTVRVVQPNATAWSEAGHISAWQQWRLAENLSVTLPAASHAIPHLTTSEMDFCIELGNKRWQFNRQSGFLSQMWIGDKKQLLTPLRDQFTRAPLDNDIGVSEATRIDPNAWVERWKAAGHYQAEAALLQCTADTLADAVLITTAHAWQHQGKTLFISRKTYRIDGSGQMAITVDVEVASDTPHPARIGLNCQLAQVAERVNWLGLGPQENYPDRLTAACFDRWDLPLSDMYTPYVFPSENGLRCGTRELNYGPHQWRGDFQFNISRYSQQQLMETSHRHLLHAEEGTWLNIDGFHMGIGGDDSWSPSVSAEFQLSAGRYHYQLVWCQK
Mu-type opioid receptor, sequence (P35372 whole entry, the tested form may be a part): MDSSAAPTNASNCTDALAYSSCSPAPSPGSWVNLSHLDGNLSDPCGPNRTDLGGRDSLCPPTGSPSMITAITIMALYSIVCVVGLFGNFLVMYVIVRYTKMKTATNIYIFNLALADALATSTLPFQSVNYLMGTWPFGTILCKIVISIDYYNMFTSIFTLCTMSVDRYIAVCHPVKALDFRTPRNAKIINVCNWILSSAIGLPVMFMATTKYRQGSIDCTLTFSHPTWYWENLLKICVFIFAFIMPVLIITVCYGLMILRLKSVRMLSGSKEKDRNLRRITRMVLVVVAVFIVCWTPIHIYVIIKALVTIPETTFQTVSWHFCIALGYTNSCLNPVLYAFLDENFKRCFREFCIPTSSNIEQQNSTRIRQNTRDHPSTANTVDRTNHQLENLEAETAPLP
5-hydroxytryptamine receptor 5A, sequence (P47898 whole entry): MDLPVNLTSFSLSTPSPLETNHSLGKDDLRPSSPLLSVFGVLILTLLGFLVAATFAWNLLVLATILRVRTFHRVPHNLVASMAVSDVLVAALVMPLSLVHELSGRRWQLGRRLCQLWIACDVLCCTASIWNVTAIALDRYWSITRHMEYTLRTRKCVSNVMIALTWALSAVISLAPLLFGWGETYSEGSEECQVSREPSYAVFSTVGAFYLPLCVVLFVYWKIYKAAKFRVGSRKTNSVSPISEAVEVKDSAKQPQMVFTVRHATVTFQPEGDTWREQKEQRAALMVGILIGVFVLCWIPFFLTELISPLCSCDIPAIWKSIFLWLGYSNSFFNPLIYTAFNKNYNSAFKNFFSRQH

SMILES: O=C(c1ccc(F)cc1)N1CCN(c2ccccn2)CC1
AC50 [1]: 53.2 µM (active)
AC50 [2]: 4.43 µM (active)

SMILES: COC(=O)Nc1nnc(-c2ccccc2Cl)s1
IC50 [3]: 18.9 µM (active)
IC50 [4]: 5.86 µM (active)
IC50 [5]: 5.89 µM (active)
IC50 [6]: 23.6 µM (active)
AC50 [7]: 61.8 µM (active)

AC50 [8]: 2.95 µM (active)
AC50 [9]: 21.6 µM (active)
SMILES: COc1cc(C(=O)Nc2cccc(-c3nncn3C)c2)cc(OC)c1OC

SMILES: Nc1nonc1C(=O)NCCNCc1c(OCc2ccccc2F)ccc2ccccc12
AC50 [10]: 52.6 µM (active)
AC50 [11]: 14.1 µM (active)
EC50 [12]: > 92.5 µM (inactive)
AC50 [13]: 0.922 µM (active)
EC50 [14]: > 99 µM (inactive)
EC50 [15]: 74.8 µM (inactive)
EC50 [16]: > 99 µM (inactive)
EC50 [17]: > 92.5 µM (inactive)

SMILES: O=C(/C=C/c1ccc(Cl)cc1)Nc1ccc(N2CCCCC2)cc1
EC50 [18]: > 54.7 µM (inactive)
AC50 [19]: inconclusive
EC50 [20]: > 54.7 µM (inactive)
EC50 [21]: > 54.7 µM (inactive)
IC50 [22]: > 89.2 µM (inactive)

IC50 [23]: 2.72 µM (active)
EC50 [24]: > 40 µM (inactive)
SMILES: O=C(CCl)NNc1cccc(Cl)n1

SMILES: C[C@@H](CN1CCC2(CC1)C(=O)NCN2c1ccc(F)c(F)c1)NC(=O)c1cc2ccccc2[nH]1
IC50 [25]: 0.003 µM (active)
IC50 [26]: 0.034 µM (active)

IC50 [28]: > 99 µM (inactive)
IC50 [29]: > 99 µM (inactive)
IC50 [30]: > 99 µM (inactive)
SMILES: C(=C\c1nc(-c2cc3ccccc3cn2)no1)/c1ccccc1
IC50 [27]: > 99 µM (inactive)

SMILES: Cc1ccccc1/C=C/C1=NCCN1 [METRAZOLINE OXALATE]
AC50 [31]: 15.8 µM (inconclusive)
